The source of these data is patent publication US6686385B2, “Anhydro sugar derivatives of indolocarbazoles” (Bristol-Myers Squibb Company, priority 2000, dated 2004).

One series addresses T1, human topoisomerase I (Homo sapiens, UniProt P11387).
T1 construct: purchased Topogen
T1 sequence (P11387 1-765): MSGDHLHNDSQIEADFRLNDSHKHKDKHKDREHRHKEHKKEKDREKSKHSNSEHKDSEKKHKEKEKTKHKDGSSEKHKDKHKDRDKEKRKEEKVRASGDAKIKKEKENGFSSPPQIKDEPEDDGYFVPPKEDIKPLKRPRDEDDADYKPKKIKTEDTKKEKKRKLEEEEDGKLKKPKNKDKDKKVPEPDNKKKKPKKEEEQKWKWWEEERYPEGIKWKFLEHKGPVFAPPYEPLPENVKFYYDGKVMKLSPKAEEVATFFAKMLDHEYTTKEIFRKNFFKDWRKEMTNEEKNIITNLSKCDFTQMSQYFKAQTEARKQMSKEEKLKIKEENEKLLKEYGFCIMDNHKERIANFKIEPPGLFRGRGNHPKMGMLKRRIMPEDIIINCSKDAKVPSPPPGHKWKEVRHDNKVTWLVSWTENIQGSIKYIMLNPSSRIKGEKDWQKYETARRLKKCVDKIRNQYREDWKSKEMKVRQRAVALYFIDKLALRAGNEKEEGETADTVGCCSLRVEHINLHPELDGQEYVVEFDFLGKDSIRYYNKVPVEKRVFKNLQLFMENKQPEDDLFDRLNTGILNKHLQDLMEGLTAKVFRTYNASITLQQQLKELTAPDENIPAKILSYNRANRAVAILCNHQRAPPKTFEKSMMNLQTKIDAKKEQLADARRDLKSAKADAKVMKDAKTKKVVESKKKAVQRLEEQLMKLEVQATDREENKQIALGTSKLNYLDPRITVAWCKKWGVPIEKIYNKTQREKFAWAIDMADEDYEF
Description: Topoisomerase I activity (in vitro): compound-induced, topoisomerase I-mediated single strand breaks in PM2 DNA. Type of series: biochemical. The following applies: purified human topoisomerase I (Topogen), 30 minutes at 37° C., median effective concentration for inducing single strand breaks, read-out: TOPO I EC50. As for the experimental part:
Topoisomerase I activity was measured as described below: The procedure for assaying compound-induced, topoisomerase I-mediated single strand breaks in DNA was essentially that described by Hsiang, et al., (J. Biol. Chem. 1985, 260,14873-14878). Samples dissolved in 100% DMSO as either […] or 10 mg/ml solutions, unless otherwise stated, were diluted in Tris-EDTA buffer. Marine bacteriophage PM2 DNA (Boehringer Mannheim) was also diluted in Tris-EDTA buffer to a concentration of 0.02 μg/μl. Different dilutions of compound being evaluated were mixed with diluted DNA and this mixture was added to 1000 unit (one unit of enzyme activity is defined as the amount capable of relaxing 100 ng of supercoiled DNA in approximately 30 minutes at 37° C.) aliquots of purified human topoisomerase I (Topogen) in 2×reaction buffer to start the reaction. The compound—DNA—enzyme mixture was incubated for 30 minutes at 37° C. before stopping the reaction with warm stop buffer containing sodium dodecyl sulfate and proteinase K (Sigma). These mixtures were allowed to incubate at 37° C. for another 10 minutes, at which time the mixtures were removed from the waterbath and extracted with a 24:1 mixture of chloroform/isoamyl alcohol. Following centrifugation, aliquots of the aqueous phases were placed in wells of a 0.9% agarose (SeaKem) gel in Tris-borate buffer containing 0.5 μg/ml of ethidium bromide and subjected to electrophbresis for 15 hours to separate the different topological isomers and nicked and broken DNAs. After destaining the gel in water, the ethidium bromide stained DNA reaction products were visualized by exposing the gel to UV irradiation. Negatives of photographs of the irradiated gels were scanned with a densitometer and areas under the peaks were calculated in order to obtain percent-single strand DNA break formation for each sample. A median effective concentration(EC50) was obtained for each compound by interpolation between points of the resulting dose-effect curve which defines the potency of the compound for its effect in inducing topoisomerase I-mediated single strand breaks in DNA.

The next series relates to murine P388 cell line. Description: In vitro cell-based cytotoxicity / proliferation inhibition (XTT assay). The following applies: Mus musculus, 72 hrs incubation, absorbance at 450 nm. As for the experimental part:
The proliferation inhibition activity against murine P388 cell line was measured as follow. […] The cells were incubated at 37° C. for 72 hrs at which time the tetrazolium dye, XTT, containing phenazine methosulfate was added. A dehydrogenase enzyme in live cells reduoes the XTT to a form that absorbs light at 450 nm which can be quantitated spectrophotometrically. The greater the absorbance the greater the number of live cells. The results are expressed as an IC50 which is the drug concentration required to inhibit cell proliferation (i.e. absorbance at 450 nm) to 50% of that of untreated control cells.
(Tetrazolium assays rely on reduction of a dye to a coloured formazan, in cell work by metabolically active cells.)

As a reminder, the melting point is the temperature of the solid-liquid transition. The EC50 is the midpoint of the concentration-response curve. Broadly, the IC50 is the concentration that inhibits the measured activity by half. Read a high IC50 as a need for much substance. Take `O=C1NC(=O)c2c1c1c3ccc(F)cc3[nH]c1c1c2c2ccc(F)cc2n1[C@@H]1O[C@H](CO)[C@H]2O[C@H]2[C@H]1O` [Example 12]: the melting point is more than 300 °C. For the same molecule, on human topoisomerase I, the EC50 came to 0.58 µM. In the series on murine P388 cell line, inhibition was half-maximal at 0.107 µM (IC50).
With `O=C1NC(=O)c2c1c1c3cc(F)ccc3[nH]c1c1c2c2cc(F)ccc2n1[C@@H]1OC2COC(C2O)C1O` (stereo partly drawn) [Example 1, 3,9-Difluoro-12,13-dihydro-13-[(3,6-anhydro)-β-D-glucopyranosyl]-5H-indolo[2,3-a]pyrrolo[3,4-c]carbazole-5,7(6H)-dione], on human topoisomerase I, the 50% effective concentration (EC50) came out at 0.085 µM. For the same molecule, it took 0.093 µM to reach half-maximal inhibition with murine P388 cell line (IC50).
The matching figures for `O=C1NC(=O)c2c1c1c3cc(F)ccc3[nH]c1c1c2c2cc(F)ccc2n1[C@@H]1O[C@@H]2CO[C@H]([C@H]1O)[C@H]2O` [Example 18, 3,9-Difluoro-12,13-dihydro-13-[(3,6-anhydro)-β-D-galactopyranosyl]-5H-indolo[2,3-a]pyrrolo[3,4-c]carbazole-5,7(6H)-dione]: 0.18 µM and 0.123 µM.
The matching figures for `O=C1c2c(c3c4cc(F)ccc4n(C4O[C@H]5[C@H](OC[C@H]5O)[C@H]4O)c3c3[nH]c4ccc(F)cc4c23)C(=O)N1O` (stereo partly drawn) [Example 6, 3,9-Difluoro-12,13-dihydro-13-[(2,6-dihydroxy)-(4,8-dioxa)-bicyclo[3.3.0]oct-3-yl]-5H-indolo[2,3-a]pyrrolo[3,4-c]carbazole-5,7(6-N-hydroxyl)-dione]: 0.01 µM and 0.0141 µM.
For `NN1C(=O)c2c(c3c4cc(F)ccc4n([C@@H]4OC5COC([C@@H]5O)[C@H]4O)c3c3[nH]c4ccc(F)cc4c23)C1=O` (stereo partly drawn) [Example 4, 3,9-Difluoro-12,13-dihydro-13-[(3,6-anhydro)-β-D-glucopyranosyl]-5H-indolo[2,3-a]pyrrolo[3,4-c]carbazole-5,7(6-N-amino)-dione], the EC50 at human topoisomerase I turned out to be 0.01 µM. This molecule also showed an IC50 in the series on murine P388 cell line of less than 0.003 µM.
The matching figures for `O=C1NC(=O)c2c1c1c3cc(F)ccc3[nH]c1c1c2c2cc(F)ccc2n1C1O[C@H](CO)[C@H]2O[C@H]2[C@H]1O` (stereo partly drawn) [Example 8, 3,9-Difluoro-12,13-dihydro-13-[(3,4-anhydro)-β-D-glucopyranosyl]-5H-indolo[2,3-a]pyrrolo[3,4-c]carbazole-5,7(6H)-dione]: 0.018 µM and 0.0053 µM.
The matching figures for `O=C1c2c(c3c4cc(F)ccc4n([C@@H]4OC5COC([C@@H]5O)[C@H]4O)c3c3[nH]c4ccc(F)cc4c23)C(=O)N1O` (stereo partly drawn) [Example 3, 3,9-Difluoro-12,13-dihydro-13-[(3,6-anhydro)-β-D-glucopyranosyl]-5H-indolo[2,3-a]pyrrolo[3,4-c]carbazole-5,7(6-N-hydroxyl)-dione]: 0.014 µM and 0.0146 µM.
`O=C1NC(=O)c2c1c1c3ccc(F)cc3[nH]c1c1c2c2ccc(F)cc2n1[C@@H]1O[C@@H]2CO[C@H]([C@H]1O)[C@@H]2O` [Example 14, 12-(3,6-Anhydro-β-D-glucopyranosyl)-2,10-difluoro-12,13-dihydro-5H-indolo[2,3-a]pyrrolo[3,4-c]carbazole-5,7(6H)-dione] returned a melting point of more than 300 °C. Also, the EC50 at human topoisomerase I amounted to 5.5 µM. This molecule also had an IC50 in the series with murine P388 cell line of 6.22 µM.
`O=C1NC(=O)c2c1c1c3cc(F)ccc3sc1c1c2c2cc(F)ccc2n1[C@H]1O[C@@H]2CO[C@H]([C@H]1O)[C@@H]2O` [Example 13, 3,9-Difluoro-13-(3,6-anhydro-α-D-glucopyranosyl)-5H,13H-benzo[β]thienyl[2,3-a]pyrrolo[3,4-c]carbazole-5,7(6H)-dione] came in with a melting point of more than 305 °C. Besides, the EC50 at human topoisomerase I amounted to 0.11 µM. The molecule further yielded a half-inhibitory concentration (IC50) in the series with murine P388 cell line of 0.0232 µM.
As for `O=C1NC(=O)c2c1c1c3cc(F)ccc3[nH]c1c1c2c2cc(F)ccc2n1[C@@H]1OC2COC(C2)C1O` (stereo partly drawn) [Example 11, 3,9-Difluoro-12,13-dihydro-13-[(3,6-anhydro-4-deoxy)-β-D-glucopyranosyl]-5H-indolo[2,3-a]pyrrolo[3,4-c]carbazole-5,7(6H)-dione], the EC50 on human topoisomerase I was 0.13 µM. The same molecule registered an IC50 in the series on murine P388 cell line of 0.07 µM.
In the case of `O=C1NC(=O)c2c1c1c3cc(F)ccc3[nH]c1c1c2c2cc(F)ccc2n1C1O[C@H](CF)[C@@H](F)[C@H]2O[C@@H]12` (stereo partly drawn) [Example 7, 3,9-Difluoro-12,13-dihydro-13-[(2,3-anhydro)-(4,6-difluoro)-β-D-glucopyranosyl]-5H-indolo[2,3-a]pyrrolo[3,4-c]carbazole-5,7(6H)-dione], the concentration for a half-maximal effect (EC50) on human topoisomerase I was 0.58 µM. For the same molecule, it took 0.493 µM to reach half-maximal inhibition in the series with murine P388 cell line (IC50).
In the series on murine P388 cell line, `O=C1NC(=O)c2c1c1c3cc(F)c(F)cc3[nH]c1c1c2c2cc(F)c(F)cc2n1[C@@H]1O[C@@H]2CO[C@@H](C2)[C@H]1O` [Example 16, 2,3,9,10-Tetrafluoro-12-(3,6-anhydro-4-deoxy-β-D-glucopyranosyl)-6,7,12,13-tetrahydro(5H)indolo[2,3-a]pyrrolo[3,4-c]carbazole-5,7-dione] registered an IC50 of 0.31 µM.
Turning to `O=C1NC(=O)c2c1c1c3cc(F)ccc3[nH]c1c1c2c2cc(F)ccc2n1[C@H]1OC2COC([C@@H]2O)[C@H]1O` (stereo partly drawn) [Example 2, 3,9-Difluoro-12,13-dihydro-13-[(3,6-anhydro)-α-D-glucopyranosyl]-5H-indolo[2,3-a]pyrrolo[3,4-c]carbazole-5,7(6H)-dione], the concentration for a half-maximal effect (EC50) at human topoisomerase I worked out at 0.36 µM. Besides, in the series with murine P388 cell line, half-maximal inhibition (IC50) required 0.0388 µM.
Take `O=C1NC(=O)c2c1c1c3cc(F)c(F)cc3[nH]c1c1c2c2cc(F)c(F)cc2n1[C@@H]1O[C@@H]2CO[C@H]([C@H]1O)C2(F)F` [Example 17, 2,3,9,10-Tetrafluoro-12-(3,6-anhydro-4-deoxy-4,4-difluoro-β-D-glucopyranosyl)-6,7,12,13-tetrahydro(5H)indolo[2,3-a]pyrrolo[3,4-c]carbazole-5,7-dione]: the EC50 at human topoisomerase I was determined as 15 µM. In the series on murine P388 cell line, this molecule showed an IC50 of 0.24 µM.
